Measured values reported in PubChem BioAssay (NCI).
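Tested at 5 concentrations; 48 h exposure; 96-well plates; endpoints linearly interpolated, else capped at highest concentration. At the GI50, growth is halved. The concentration for full growth arrest is given as TGI.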

Tests used:
Assay in all cases: NCI anticancer screen, dose series, 48 h
[1] = tested on: MCF7 breast
[2] = tested on: NCI-H460 lung
[3] = tested on: OVCAR-5 ovarian
[4] = tested on: RXF 393 renal
[5] = tested on: OVCAR-3 ovarian
[6] = tested on: K-562 leukemia
[7] = tested on: COLO 205 colon
[8] = tested on: SNB-75 CNS
[9] = tested on: DU-145 prostate
[10] = tested on: IGROV1 ovarian
[11] = tested on: HOP-62 NSCLC
[12] = tested on: RPMI-8226 leukemia
[13] = tested on: M14 melanoma
[14] = tested on: MDA-MB-435
[15] = tested on: UO-31 renal
[16] = tested on: CAKI-1 renal
[17] = tested on: HL-60(TB) leukemia
[18] = tested on: SK-MEL-5 melanoma
[19] = tested on: SN12C renal
[20] = tested on: NCI-H226 lung
[21] = tested on: HCT-116 colon
[22] = tested on: NCI/ADR-RES ovarian
[23] = tested on: OVCAR-4 ovarian
[24] = tested on: UACC-257 melanoma
[25] = tested on: SNB-19 CNS
[26] = tested on: A498 renal
[27] = tested on: PC-3 prostate
[28] = tested on: SK-MEL-28 melanoma
[29] = tested on: 786-0 renal
[30] = tested on: KM12 colon
[31] = tested on: SK-OV-3 ovarian
[32] = tested on: MDA-MB-231 breast
[33] = tested on: HOP-92 NSCLC
[34] = tested on: T-47D breast
[35] = tested on: SF-539 CNS
[36] = tested on: SK-MEL-2 melanoma
[37] = tested on: NCI-H522 lung
[38] = tested on: HT29 colon
[39] = tested on: SF-268 CNS
[40] = tested on: EKVX NSCLC
[41] = tested on: HCC-2998 colon
[42] = tested on: HS 578T breast
[43] = tested on: A549 NSCLC
[44] = tested on: U251 CNS
[45] = tested on: OVCAR-8 ovarian
[46] = tested on: UACC-62 melanoma
[47] = tested on: MALME-3M melanoma
[48] = tested on: MOLT-4 leukemia
[49] = tested on: BT-549 breast
[50] = tested on: HCT-15 colon
[51] = tested on: SF-295 CNS
[52] = tested on: ACHN renal
[53] = tested on: TK-10 renal

SMILES: C=C1C(=O)O[C@H]2[C@H]1CC/C(COC(=O)/C=C/C(=O)NCc1ccc(Cn3c(=O)sn(-c4ccccc4)c3=O)cc1)=C\CC[C@@]1(C)O[C@@H]21
- GI50 [1]: 1.75 µM
- TGI [1]: 7.72 µM
- GI50 [2]: 5.28 µM
- TGI [2]: 22.2 µM
- GI50 [3]: 2.69 µM
- TGI [3]: 5.8 µM
- GI50 [4]: 1.43 µM
- TGI [4]: 2.83 µM
- GI50 [5]: 0.519 µM
- TGI [5]: 1.72 µM
- GI50 [6]: 0.501 µM
- TGI [6]: 18.4 µM
- GI50 [7]: 1.74 µM
- TGI [7]: 3.47 µM
- GI50 [8]: 3.41 µM
- TGI [8]: 15.2 µM
- GI50 [9]: 1.95 µM
- TGI [9]: 4.07 µM
- GI50 [10]: 2.44 µM
- TGI [10]: 7.24 µM
- GI50 [11]: 13.2 µM
- TGI [11]: 27.1 µM
- GI50 [12]: 1.21 µM
- TGI [12]: 4.78 µM
- GI50 [13]: 1.86 µM
- TGI [13]: 4.37 µM
- GI50 [14]: 1.73 µM
- TGI [14]: 3.44 µM
- GI50 [15]: 2.19 µM
- TGI [15]: 5.09 µM
- GI50 [16]: 11.7 µM
- TGI [16]: 24.4 µM
- GI50 [17]: 0.925 µM
- TGI [17]: 5.3 µM
- GI50 [18]: 2.36 µM
- TGI [18]: 6.27 µM
- GI50 [19]: 2.16 µM
- TGI [19]: 5.95 µM
- GI50 [20]: 14.6 µM
- TGI [20]: 32.8 µM
- GI50 [21]: 0.382 µM
- TGI [21]: 1.44 µM
- GI50 [22]: 47.8 µM
- TGI [22]: > 100 µM
- GI50 [23]: 2.69 µM
- TGI [23]: 8.09 µM
- GI50 [24]: 1.74 µM
- TGI [24]: 4.07 µM
- GI50 [25]: 4.8 µM
- TGI [25]: 19.4 µM
- GI50 [26]: 3.45 µM
- TGI [26]: 9.55 µM
- GI50 [27]: 2.84 µM
- TGI [27]: 9.54 µM
- GI50 [28]: 1.74 µM
- TGI [28]: 3.28 µM
- GI50 [29]: 1.61 µM
- TGI [29]: 3.33 µM
- GI50 [30]: 2.96 µM
- TGI [30]: 11.6 µM
- GI50 [31]: 30.3 µM
- TGI [31]: > 100 µM
- GI50 [32]: 2.02 µM
- TGI [32]: 3.98 µM
- GI50 [33]: 1.85 µM
- TGI [33]: 3.55 µM
- GI50 [34]: 2.22 µM
- TGI [34]: 7.21 µM
- GI50 [35]: 1.84 µM
- TGI [35]: 3.45 µM
- GI50 [36]: 2.22 µM
- TGI [36]: 5.57 µM
- GI50 [37]: 0.406 µM
- TGI [37]: 1.77 µM
- GI50 [38]: 1.86 µM
- TGI [38]: 3.84 µM
- GI50 [39]: 2.67 µM
- TGI [39]: 10.9 µM
- GI50 [40]: 4.82 µM
- TGI [40]: 17.6 µM
- GI50 [41]: 2.11 µM
- TGI [41]: 4.46 µM
- GI50 [42]: 3.95 µM
- TGI [42]: 35.4 µM
- GI50 [43]: 17.2 µM
- TGI [43]: 37 µM
- GI50 [44]: 3.46 µM
- TGI [44]: 12.1 µM
- GI50 [45]: 2.32 µM
- TGI [45]: 5.39 µM
- GI50 [46]: 1.61 µM
- TGI [46]: 3.26 µM
- GI50 [47]: 0.933 µM
- TGI [47]: 2.41 µM
- GI50 [48]: 1.14 µM
- TGI [48]: 5.2 µM
- GI50 [49]: 1.55 µM
- TGI [49]: 2.91 µM
- GI50 [50]: 3.22 µM
- TGI [50]: 13.6 µM
- GI50 [51]: 18.3 µM
- TGI [51]: 32.7 µM
- GI50 [52]: 1.84 µM
- TGI [52]: 3.78 µM
- GI50 [53]: 1.92 µM
- TGI [53]: 3.85 µM
